Usually inhibition stands for the share of the control response that was lost under treatment.

Assay [1] in a line: Anti-glycation effect (L-arginine and glucose). Conditions: 70 ℃, 4 h, 420 nm.
The test system of assay [2] is RAW264.7 cells, nitric oxide (NO) [RAW264.7 세포, 일산화질소(NO)]. In words: NO production inhibition in LPS-stimulated RAW264.7 cells (GRIESS method). It counts as cell-based. The note with it: Mus musculus, LPS 1 ㎍, 24 h, read-out: NO production inhibition rate.
The subject of assay [3] is human-derived fibroblasts, type I collagen [인간 유래 섬유아세포, 제1형 콜라겐]. In words: Type I collagen synthesis promotion in human-derived fibroblasts (PICP EIA kit). Conditions: 48 h, n = 4. It counts as cell-based.
Assay [4] can be described thus: Free radical scavenging (DPPH), antioxidant effect. The note with it: 37 ℃, 30 min, 520 nm, n = 3. (In general: The DPPH test is a chemical assay of radical scavenging.)
The subject of assay [5] is B-16 mouse melanoma cells [쥐의 멜라노마 세포(B-16 mouse melanoma cell)]. Nature of the assay: Melanin total amount reduction in B-16 mouse melanoma cells (whitening effect). The class given is cell-based. The note with it: 3 days, n = 3; for melanin production amount: absorbance at 400 nm per 1×10^6 cells.
The target of a further assay is T1, elastase [엘라스타제] (Homo sapiens, UniProt P08246).
T1 construct: 엘라스타제(elastase)는 사람의 백혈구 세포로부터 유래한 것을 사용하였고; from tissue; host or cells: human leukocytes
T1 sequence (P08246 30-267): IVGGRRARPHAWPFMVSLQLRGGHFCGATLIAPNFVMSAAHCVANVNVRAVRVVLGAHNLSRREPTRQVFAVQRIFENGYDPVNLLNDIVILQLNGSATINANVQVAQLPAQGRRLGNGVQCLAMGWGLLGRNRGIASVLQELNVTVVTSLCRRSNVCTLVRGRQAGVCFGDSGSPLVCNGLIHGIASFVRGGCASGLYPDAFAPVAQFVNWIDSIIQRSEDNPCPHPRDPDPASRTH
In words: Elastase activity inhibition. The class given is biochemical. The note with it: pH 7.5, room temperature, n = 3; for enzyme activity: slope of absorbance at 405 nm.

A further assay deals with collagenase [콜라게네이즈]. In words: Collagenase activity inhibition. The class given is biochemical, rat/mouse. Conditions: pH 7.5, room temperature, n = 3; for enzyme activity: maximum slope of absorbance at 345 nm; for inhibition rate: collagenase.

Take `N=C(N)NN` [Aminoguanidine, reference compound]: in assay [1] (55 ppm), the inhibition rate is 54.89%.

With `CNC(=N)NCCC[C@H](N)C(=O)O` [L-NMMA, L-NG-Monomethylarginine, reference compound], in assay [2], the inhibition at 10 ppm turned out to be 41%.

For the molecule `O=C1O[C@H]([C@@H](O)CO)C(O)=C1O` [비타민 C, L-Ascorbic acid, reference compound], the “type I collagen production amount” value in assay [3] (50 ppm) amounted to 246.8 ng/mL. Moreover, the activation at 50 ppm in assay [3] (Homo sapiens, Fibroblast, collagen production vs negative control, 50 ppm, read-out: increase rate) came to 64.3%. In addition, in assay [4], the “free radical scavenging rate (IC50)” value stood at 7.5.

For `OC[C@H]1O[C@@H](Oc2ccc(O)cc2)[C@H](O)[C@@H](O)[C@@H]1O` [알부틴, reference compound], the melanin production amount in assay [5] (100 ppm) is reported as 0.228 abs. Moreover, in assay [5] (Mus musculus, 72 h, total melanin vs negative control, 100 ppm, read-out: inhibition rate), the inhibition at 100 ppm worked out at 30.9%.

In the case of `O=c1oc2c(O)cc(O)cc2c2oc3cc(O)c(O)cc3c12` [화학식1의 화합물, 2,4,8,9-tetrahydroxy-[1]benzofuro[3,2-c]chromen-6-one], the melanin production amount in assay [5] (1 ppm) is 0.251 abs; in assay [5] (10 ppm), 0.232 abs. For the same molecule, the inhibition at 1 ppm in assay [5] (Mus musculus, 72 h, total melanin vs negative control, 1 ppm, read-out: inhibition rate) turned out to be 23.9%; in assay [2] (1 ppm) it was 36.2%. Moreover, the inhibition at 10 ppm in assay [5] (Mus musculus, 72 h, total melanin vs negative control, 10 ppm, read-out: inhibition rate) came out at 29.7%; at elastase [엘라스타제] (elastase, 10 ppm, read-out: inhibition rate), 64.4%; in assay [2] it was 43.9%. In addition, the “type I collagen production amount” value in assay [3] (1 ppm) was found to be 180.3 ng/mL; in assay [3] (10 ppm), 260.1 ng/mL. Further, the activation at 1 ppm in assay [3] (Homo sapiens, Fibroblast, collagen production vs negative control, 1 ppm, read-out: increase rate) amounted to 20%. The activation at 10 ppm in assay [3] (Homo sapiens, Fibroblast, collagen production vs negative control, 10 ppm, read-out: increase rate) was determined as 73.2%. Besides, the enzyme activity is listed as 3.7 on elastase [엘라스타제] (10 ppm), 3.2 at elastase [엘라스타제] (20 ppm), -2.34 with collagenase [콜라게네이즈] (100 ppm) and -2.61 in the assay with collagenase [콜라게네이즈] (200 ppm). On elastase [엘라스타제] (elastase, 20 ppm, read-out: inhibition rate), the inhibition at 20 ppm came to 69.1%. Also, the inhibition rate was determined as 24.57% with collagenase [콜라게네이즈] (100 ppm), 32.37% in the assay with collagenase [콜라게네이즈] (200 ppm), 44.32% in assay [1] (25 ppm) and 65.20% in assay [1] (50 ppm). For the same molecule, the inhibition at 100 ppm in assay [2] (100 ppm) was determined as 55.2%.

Values taken from patent publication KR20180032031A, “이소디메틸웨델로락톤을 포함하는 화장료 조성물” (주식회사 엘지생활건강, priority 2016, dated 2018).
